The values below come from article PMC11945486, “TAS1R2/TAS1R3 Single-Nucleotide Polymorphisms Affect Sweet Taste Receptor Activation by Sweeteners: The SWEET Project” (Nutrients, 2025).

As usually defined, the EC50 is the concentration at which the effect is half-maximal.

Read-outs that look alike come from different tables or passages of the source. No end group written: not given here.

The test deals with T1, human TAS1R2-WT/TAS1R3-R247H (Homo sapiens, UniProt Q7RTX0+Q8TE23, R247H).
T1 construct: expressed in transfected cells; host or cells: HEK293T stably expressing Gα16gust44
T1 sequence (Q8TE23 20-839): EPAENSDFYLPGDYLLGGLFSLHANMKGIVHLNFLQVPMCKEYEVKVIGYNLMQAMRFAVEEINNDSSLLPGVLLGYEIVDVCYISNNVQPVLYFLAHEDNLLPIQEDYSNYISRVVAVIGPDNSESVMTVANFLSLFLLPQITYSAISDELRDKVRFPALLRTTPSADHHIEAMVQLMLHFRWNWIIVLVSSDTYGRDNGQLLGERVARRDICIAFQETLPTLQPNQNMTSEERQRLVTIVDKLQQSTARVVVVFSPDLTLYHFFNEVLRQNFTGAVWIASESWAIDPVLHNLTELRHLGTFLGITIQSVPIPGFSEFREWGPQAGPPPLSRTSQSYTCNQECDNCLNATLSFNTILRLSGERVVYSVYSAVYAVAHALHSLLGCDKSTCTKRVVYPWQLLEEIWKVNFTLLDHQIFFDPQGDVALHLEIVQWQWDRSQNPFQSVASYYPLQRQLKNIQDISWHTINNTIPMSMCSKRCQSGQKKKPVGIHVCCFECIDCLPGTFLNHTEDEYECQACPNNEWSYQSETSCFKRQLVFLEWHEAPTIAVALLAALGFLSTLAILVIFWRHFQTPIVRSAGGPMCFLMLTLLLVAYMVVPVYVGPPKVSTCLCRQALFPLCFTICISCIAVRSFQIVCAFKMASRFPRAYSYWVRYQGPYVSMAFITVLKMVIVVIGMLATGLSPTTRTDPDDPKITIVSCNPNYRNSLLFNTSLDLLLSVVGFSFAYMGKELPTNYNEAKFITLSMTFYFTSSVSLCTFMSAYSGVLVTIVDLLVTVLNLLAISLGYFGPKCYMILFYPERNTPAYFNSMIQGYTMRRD
T1 sequence (Q7RTX0 21-852 R247H): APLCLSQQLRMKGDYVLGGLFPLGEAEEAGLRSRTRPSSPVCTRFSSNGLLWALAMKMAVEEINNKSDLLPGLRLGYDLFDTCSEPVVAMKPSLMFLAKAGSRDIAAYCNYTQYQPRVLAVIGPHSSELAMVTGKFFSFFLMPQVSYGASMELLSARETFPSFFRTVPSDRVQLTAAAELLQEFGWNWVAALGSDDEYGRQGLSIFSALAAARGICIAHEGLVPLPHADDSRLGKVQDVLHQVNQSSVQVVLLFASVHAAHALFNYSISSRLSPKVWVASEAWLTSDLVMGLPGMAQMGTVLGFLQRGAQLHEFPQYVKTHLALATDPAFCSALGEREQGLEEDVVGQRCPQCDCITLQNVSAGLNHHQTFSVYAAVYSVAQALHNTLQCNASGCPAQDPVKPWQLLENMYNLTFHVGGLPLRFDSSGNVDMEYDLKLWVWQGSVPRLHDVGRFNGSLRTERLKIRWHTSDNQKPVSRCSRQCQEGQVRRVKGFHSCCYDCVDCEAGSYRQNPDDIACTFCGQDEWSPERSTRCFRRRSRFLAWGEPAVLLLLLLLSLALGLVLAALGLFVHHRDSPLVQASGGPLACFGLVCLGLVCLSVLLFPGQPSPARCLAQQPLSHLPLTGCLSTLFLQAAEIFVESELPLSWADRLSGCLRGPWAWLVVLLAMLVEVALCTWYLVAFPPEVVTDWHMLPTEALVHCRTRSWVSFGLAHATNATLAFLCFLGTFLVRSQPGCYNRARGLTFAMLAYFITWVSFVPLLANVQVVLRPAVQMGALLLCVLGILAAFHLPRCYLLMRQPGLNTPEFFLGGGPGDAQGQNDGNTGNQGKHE
In words: Calcium mobilisation assay, TAS1R2-WT with TAS1R3 variant R247H. The format is cell-based. The conditions noted are these: for Max ΔF/F0: maximal signal amplitude. The source says: The coding sequences for TAS1R2 and TAS1R3 were commercially synthesised, and the human codon was optimised for expression in human cells. The coding sequences of human TAS1R2 and TAS1R3 were subcloned and inserted into the mammalian expression vectors pcDNA6/myc-HisA and pcDNA4/myc-HisA (Invitrogen; Thermo Fisher Scientific; Illkirch, France) between the EcoRI and NotI restriction sites, generating the plasmids pcDNA6-TAS1R2 and pcDNA4-TAS1R3, respectively. To increase protein expression in mammalian cells, an upstream start codon was used, which was a sequence called MAX, corresponding to the QBI SP163 element also described in pcDNA4-HisMax (Invitrogen; Thermo Fisher Scientific; Illkirch, France). To measure the expression level of the receptor by immunohistochemistry, we used the FLAG sequence ([…]) in the C-terminal position, which encodes the FLAG tag epitope. SNP variants of TAS1R2 and TAS1R3 were constructed based on […], respectively, using site-directed mutagenesis (Genewiz; Leipzig, Germany).
The HEK293T cells were kindly provided by Jay P. Slack (Givaudan Flavors Corporation; Cincinnati, OH, USA). HEK293T cells stably transfected with Gα16gust44 [43, 67] were seeded in poly-D-lysine-coated clear-bottom black 96-well plates (0.35 × 10^5 cells/well) in high-glucose DMEM supplemented with 2 mM GlutaMAX, 10% dialysed foetal bovine serum with penicillin/streptomycin and G418 (400 μg/mL) at 37 °C and 6.3% CO2 in a humidified atmosphere as previously reported. […] As a negative control, HEK293T cells were mock-transfected with the empty expression vector. After a further 24 h of incubation, the HEK293T cells were washed with C1 buffer (130 mM NaCl, 5 mM KCl, 10 mM HEPES pH 7.4 and 2 mM CaCl2). The 96-well plates containing the cells were then stimulated with sweet-tasting compounds. […] Different concentration ranges were tested depending on the sweet compound injected. The Ca^2+ changes were expressed as fractional changes in fluorescent light intensity: ΔF/F = (F − F0)/F0, where F was the fluorescent light intensity at each point, and F0 was the value of emitted fluorescent light prior to stimulus application. To calculate dose–response relationships, the changes in fluorescence upon stimulus application were averaged, mock-subtracted and baseline-corrected. The dose–response data obtained were adjusted using a 4-parameter logistic equation. The half-maximal effective concentrations (EC50 values) and maximal signal amplitudes were calculated using SigmaPlot software (version 15.0) (Systat Software; San Jose, CA, USA).
For in vitro calcium mobilisation assay performed on hTAS1R2-SNPs, hTAS1R3-SNPs and mTAS1R3-I60T, 6 to 7 concentrations were tested for each sweet compound, plus buffer alone. All concentration–receptor combinations were measured in duplicate, and each experiment was repeated at least 4 times (8 wells/concentration). Results were expressed for each concentration as ΔF/F mean ± SEM and represented as dose–response curves.

Turning to `OC[C@H]1O[C@H](O[C@]2(CCl)O[C@H](CCl)[C@@H](O)[C@@H]2O)[C@H](O)[C@@H](O)[C@H]1Cl` [Sucralose], the “R1 = Variant EC50/WT EC50” value is on record as 1.1 and the “Max ΔF/F0” value came to 0.69 ± 0.01. The EC50 (read-out: EC50) worked out at 122 ± 2 µM.

On to `C[C@H](CC[C@@H](O[C@@H]1O[C@H](CO[C@@H]2O[C@H](CO)[C@@H](O)[C@H](O)[C@H]2O)[C@@H](O)[C@H](O)[C@H]1O[C@@H]1O[C@H](CO)[C@@H](O)[C@H](O)[C@H]1O)C(C)(C)O)[C@H]1CC[C@@]2(C)[C@@H]3CC=C4[C@@H](CC[C@H](O[C@@H]5O[C@H](CO[C@@H]6O[C@H](CO)[C@@H](O)[C@H](O)[C@H]6O)[C@@H](O)[C@H](O)[C@H]5O)C4(C)C)[C@]3(C)[C@H](O)C[C@]12C` [Mogroside V, mogroside V], for which the “R1 = Variant EC50/WT EC50” value came out at 0.9 and the “Max ΔF/F0” value came to 1.12 ± 0.02. The EC50 (read-out: EC50) was determined as 28.7 ± 1.6 µM.

As to `COC(=O)[C@H](Cc1ccccc1)NC(=O)[C@H](CC(=O)O)NCCC(C)(C)C` [Neotame], the “R1 = Variant EC50/WT EC50” value was found to be 0.9 and the “Max ΔF/F0” value was determined as 0.71 ± 0.02. Further, the EC50 (read-out: EC50) is 1.12 ± 0.07 µM.

Regarding “brazzein (QDKCKKVYENYPVSKCQLANQCNYDCKLDKHARSGECFYDEKRNLQCICDYCEY; ends and bridges not checked; cysteine pairing not given here; UniProt P56552 1-54, looked up) [sweet-tasting protein obtained by recombinant production using the yeast Pichia pastoris]”, the “R1 = Variant EC50/WT EC50” value is listed as 0.6 and the “Max ΔF/F0” value was determined as 0.95 ± 0.03. In addition, the EC50 (brazzein) came to 70.8 ± 8.1 µg/mL.

Turning to `C=C(C)[C@@H]1CC=C(/C=N/O)CC1` [Perillartine, perillartine], the “R1 = Variant EC50/WT EC50” value amounted to 0.6 and the “Max ΔF/F0” value is reported as 1.26 ± 0.15. The concentration for a half-maximal effect (EC50) (read-out: EC50) turned out to be 8.5 ± 3.1 µM.

In the case of `CC1=CC(=O)NS(=O)(=O)O1` [Acesulfame K, acesulfame K], the “R1 = Variant EC50/WT EC50” value stood at 1.0 and the “Max ΔF/F0” value is 0.33 ± 0.01. For the same molecule, the EC50 (read-out: EC50) worked out at 639 ± 17 µM.

On to `C=C1C[C@@]23CC[C@H]4[C@@](C)(CCC[C@@]4(C)C(=O)O[C@@H]4O[C@H](CO)[C@@H](O)[C@H](O[C@@H]5O[C@H](CO)[C@@H](O)[C@H](O)[C@H]5O)[C@H]4O[C@@H]4O[C@H](CO)[C@@H](O)[C@H](O)[C@H]4O)[C@@H]2CC[C@]1(O[C@@H]1O[C@H](CO)[C@@H](O)[C@H](O[C@@H]2O[C@H](CO)[C@@H](O)[C@H](O)[C@H]2O)[C@H]1O[C@@H]1O[C@H](CO)[C@@H](O)[C@H](O)[C@H]1O)C3` [Rebaudioside M, rebaudioside M], for which the “R1 = Variant EC50/WT EC50” value is recorded as 0.7 and the “Max ΔF/F0” value was found to be 1.15 ± 0.04. Besides, where the note is “read-out: EC50”, the EC50 was 29.7 ± 2.6 µM.

Regarding `O=S(=O)(O)NC1CCCCC1` [Cyclamate, cyclamate], the EC50 (read-out: EC50) amounted to 1520 ± 46 µM.

For the molecule `COc1ccc(CCC(=O)c2c(O)cc(O[C@@H]3O[C@H](CO)[C@@H](O)[C@H](O)[C@H]3O[C@@H]3O[C@@H](C)[C@H](O)[C@@H](O)[C@H]3O)cc2O)cc1O` [NHDC, neohesperidin dihydrochalcone], the “R1 = Variant EC50/WT EC50” value is reported as 1.3 and the “Max ΔF/F0” value is given as 1.14 ± 0.05. The EC50 (read-out: EC50) amounted to 65 ± 8.9 µM.

Turning to thaumatin, the “R1 = Variant EC50/WT EC50” value was found to be 0.8 and the “Max ΔF/F0” value stood at 0.73 ± 0.08.

B1: thaumatin (protein)
chain: ATFEIVNRCSYTVWAAASKGDAALDAGGRQLNSGESWTINVEPGTKGGKIWARTDCYFDDSGSGICKTGDCGGLLRCKRFGRPPTTLAEFSLNQYGKDYIDISNIKGFNVPMDFSPTTRGCRGVRCAADIVGQCPAKLKAPGGGCNDACTVFQTSEYCCTTGKCGPTEYSRFFKRLCPDAFSYVLDKPTTVTCPGSSNYRVTFCPTA
modifications: Eight disulfides
notes: sweet-tasting plant protein, E957
Consider B1, for which the EC50 (read-out: EC50) came out at 8.2 ± 2.3 µM.
